The record followed here is patent EP4803513A1, “SUBSTITUTED QUINAZOLINE COMPOUND, PREPARATION METHOD THEREFOR, PHARMACEUTICAL COMBINATION THEREOF, AND USE THEREOF” (Hongyun Biotech Co., Ltd., priority 2023, dated 2025).

What all share (type): cell-based
One test has as its system BRK-BaF3 cells. As to the kind of experiment: Cell antiproliferative activity assay (CCK-8), BRK-BaF3. Conditions: 72 h, CCK-8, 3 days incubation. In short, it runs like this:
(§1)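 Growth inhibition over 3 days, with compound serially diluted 3-fold from a 10 µM top concentration. Cells seeded at 100,000 cells/mL; WT-BaF3 medium carried 10% WEHI supernatant as the IL-3 source. Viability read by CCK-8 OD450 after 2-4 h; IC50 from blank-subtracted curve fit.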

The subject of a further test is WT-BaF3 cells. Description: Cell antiproliferative activity assay (CCK-8), WT-BaF3 (broad-spectrum cytotoxicity). Conditions: 72 h; WT-BaF3 cells (IL-3 supplemented), CCK-8, 3 days incubation. In short, it runs like this:
as §1

Another test concerns T47D cells. Description: Cell antiproliferative activity assay (CCK-8), T47D. Conditions: Homo sapiens, 72 h, breast cancer cell line T47D, incubation for 3 days. The method, then:
BRK-BaF3, WT-BaF3, WEHI cell line, and breast cancer cell line T47D were cultured using RPMI 1640 Basal medium or DMEM (Dulbecco's Modified Eagle Medium) (Shanghai Peiyuan Biotechnology, L220KJ), supplemented with 10% FBS (Gibco, REF 10099-141C) and 1% P/S (Shanghai Peiyuan Biotechnology, S110JV), in an incubator (Thermo 3020) at 37°C with 5% CO2. Cell viability was above 95%. Cells were passaged at a 3:1 ratio every 3-4 days. For WT-BaF3 cells, WEHI cells were first cultured, and their culture supernatant was filtered through a 0.22 µm filter. This supernatant was added at 10% to the regular culture medium to supplement IL-3 required for WT-BaF3 cell proliferation, which served as the culture medium for WT-BaF3. For testing, cells were first collected and counted, then prepared into a cell suspension at 100,000 cells/mL and plated at 100 µL per well. Drug concentrations started from 10 µM and were serially diluted 3:1. After incubation for 3 days, 20 µL of CCK-8 detection reagent (Targetmol C005) was added to each well. After incubation for 2-4 hours, OD450 was measured using a microplate reader (Varioskan LUX, Thermo Scientific). After subtracting the blank background, the curve was fitted and the IC50 was calculated using XLfit software.
In addition, the following table exemplarily lists the IC50 values of some compounds of the present invention against T47D cells.

A word on the IC50: it is the concentration that gives 50% inhibition. Low values mean higher potency, high ones lower potency.

For the molecule `Cc1ccc(C#N)cc1-c1cc(C(C)C)c2nc(Nc3cn(CCO)nc3C)ncc2c1` [I-162], the half-maximal inhibitory concentration (IC50) in the test with BRK-BaF3 cells was no more than 20 nM; with WT-BaF3 cells it was 500 to 2500 nM; in the test with T47D cells it was no more than 500 nM.
On the same counts, the results for `Cc1nn(CCO)cc1Nc1ncc2cc(-c3c[nH]nc3C)cc(C(C)C)c2n1` [I-187] are no more than 20 nM, 500 to 2500 nM and no more than 500 nM.
Take `Cc1nn(CCO)cc1Nc1ncc2cc(-c3c(C)n[nH]c3C)cc(C(C)C)c2n1` [I-189]: the 50% inhibitory concentration (IC50) is no more than 20 nM in the test with BRK-BaF3 cells, 500 to 2500 nM in the test on WT-BaF3 cells and 500 to 1000 nM in the test with T47D cells.
Regarding `Cc1nn(CCO)cc1Nc1ncc2cc(-c3cnoc3C)cc(C(C)C)c2n1` [I-193], the IC50 is no more than 20 nM in the test on BRK-BaF3 cells, 100 to 500 nM in the test on WT-BaF3 cells and no more than 500 nM with T47D cells.
As for `Cc1nccnc1-c1cc(C(C)C)c2nc(Nc3ccc(P(C)(C)=O)cc3)ncc2c1` [II-11], the 50% inhibitory concentration (IC50) in the test with BRK-BaF3 cells is no more than 20 nM; in the test on WT-BaF3 cells, 500 to 2500 nM; with T47D cells it was no more than 500 nM.
Turning to `Cc1nccnc1-c1cc(C(C)C)c2nc(Nc3ccc(P(C)(C)=O)cc3F)ncc2c1` [II-12], the figures for the IC50 in the test with BRK-BaF3 cells, with WT-BaF3 cells and in the test on T47D cells were 20 to 100 nM, greater than 2500 nM and 500 to 1000 nM, respectively.
For `COc1cc(Nc2ncc3cc(-c4nccnc4C)cc(C(C)C)c3n2)ccc1P(C)(C)=O` [II-16], the half-maximal inhibitory concentration (IC50) with BRK-BaF3 cells is no more than 20 nM; in the test with WT-BaF3 cells, 500 to 2500 nM; with T47D cells it was no more than 500 nM.
For `Cc1nccnc1-c1cc(C(C)C)c2nc(Nc3ccc(P(C)(C)=O)c(C)c3F)ncc2c1` [II-18] the same measures were no more than 20 nM, greater than 2500 nM and 500 to 1000 nM.
On the same counts, the results for `COc1cc(Nc2ncc3cc(-c4nccnc4C)cc(C(C)C)c3n2)c(F)cc1P(C)(C)=O` [II-22] are no more than 20 nM, 500 to 2500 nM and no more than 500 nM.
For `COc1cc(Nc2ncc3cc(-c4nccnc4C)cc(C4CC4)c3n2)ccc1P(C)(C)=O` [II-33] the same measures were no more than 20 nM, 100 to 500 nM and no more than 500 nM.
With `COc1cc(Nc2ncc3cc(-c4c(C)ncnc4C)cc(C4CC4)c3n2)ccc1P(C)(C)=O` [II-62], the IC50 in the test with BRK-BaF3 cells was no more than 20 nM; in the test with WT-BaF3 cells, 100 to 500 nM; with T47D cells, 500 to 1000 nM.
For `COc1cc(Nc2ncc3cc(-c4cccnc4C)cc(C4CC4)c3n2)ccc1P(C)(C)=O` [II-64], the IC50 is no more than 20 nM in the test on BRK-BaF3 cells, 500 to 2500 nM in the test on WT-BaF3 cells and no more than 500 nM in the test on T47D cells.
In the test on T47D cells, `COc1cc(Nc2ncc3cc(-c4cccnc4)cc(C4CC4)c3n2)ccc1P(C)(C)=O` [II-65] came in with an IC50 of no more than 500 nM.
The same measure, in the same setting: next, `COc1cc(Nc2ncc3cc(-c4cnccc4C)cc(C4CC4)c3n2)ccc1P(C)(C)=O` [II-66]: no more than 500 nM.
As to `COc1cc(Nc2ncc3cc(-c4nnccc4C)cc(C4CC4)c3n2)ccc1P(C)(C)=O` [II-67], the IC50 was no more than 20 nM in the test with BRK-BaF3 cells, 100 to 500 nM in the test with WT-BaF3 cells and no more than 500 nM in the test on T47D cells.
On the same counts, the results for `COc1cc(Nc2ncc3cc(-c4nccnc4C)cc(C4CC4)c3n2)c(F)cc1P(C)(C)=O` [II-70] are 20 to 100 nM, 500 to 2500 nM and no more than 500 nM.
On the same counts, the results for `COc1nc(Nc2ncc3cc(-c4nccnc4C)cc(C4CC4)c3n2)ccc1P(C)(C)=O` [II-71] are no more than 20 nM, 500 to 2500 nM and no more than 500 nM.
On the same counts, the results for `CCOc1cc(Nc2ncc3cc(-c4nccnc4C)cc(C4CC4)c3n2)ccc1P(C)(C)=O` [II-72] are no more than 20 nM, 500 to 2500 nM and no more than 500 nM.
In the case of `CCP(=O)(CC)c1ccc(Nc2ncc3cc(-c4nccnc4C)cc(C4CC4)c3n2)cc1OC` [II-74], the IC50 in the test on BRK-BaF3 cells was no more than 20 nM; in the test with WT-BaF3 cells it was 500 to 2500 nM; in the test with T47D cells it was no more than 500 nM.
On the same counts, the results for `CNc1cc(Nc2ncc3cc(-c4nccnc4C)cc(C4CC4)c3n2)ccc1P(C)(C)=O` [II-77] are no more than 20 nM, 100 to 500 nM and no more than 500 nM.
On the same counts, the results for `Cc1c[nH]c(=O)cc1-c1cc(C(C)C)c2nc(Nc3cn(C)nc3C)ncc2c1` [III-2] are no more than 20 nM, greater than 2500 nM and no more than 500 nM.
Take `Cc1nn(C)cc1Nc1ncc2cc(-c3cncc(F)c3C(N)=O)cc(C(C)C)c2n1` [III-127]: the IC50 in the test on BRK-BaF3 cells is 20 to 100 nM; in the test on WT-BaF3 cells, greater than 2500 nM.
For `Cc1nn(CC(N)=O)cc1Nc1ncc2cc(-c3cccnc3C)cc(C(C)C)c2n1` [III-128] the same measures were no more than 20 nM and greater than 2500 nM.
